Assay [1] is described as follows: Counterscreen for activators of the function of SWI/SNF related, matrix associated, actin dependent regulator of chromatin, subfamily a, member 2 (SMARCA2, BRM): Luminescence-based cell-based high throughput dose response assay to identify non-selective compounds using the VP16 reporter assay. In kind it is functional. (The purpose of a counterscreen is to sort out artefacts and off-target activity.)

For assay [2], the target named is SWI/SNF-related matrix-associated actin-dependent regulator of chromatin subfamily A member 2 (Homo sapiens, UniProt P51531). Put plainly: Luminescence-based cell-based high throughput dose response assay to identify activators of the function of SWI/SNF related, matrix associated, actin dependent regulator of chromatin, subfamily a, member 2 (SMARCA2, BRM). In kind it is functional.
Chain of SWI/SNF-related matrix-associated actin-dependent regulator of chromatin subfamily A member 2 (P51531 whole entry): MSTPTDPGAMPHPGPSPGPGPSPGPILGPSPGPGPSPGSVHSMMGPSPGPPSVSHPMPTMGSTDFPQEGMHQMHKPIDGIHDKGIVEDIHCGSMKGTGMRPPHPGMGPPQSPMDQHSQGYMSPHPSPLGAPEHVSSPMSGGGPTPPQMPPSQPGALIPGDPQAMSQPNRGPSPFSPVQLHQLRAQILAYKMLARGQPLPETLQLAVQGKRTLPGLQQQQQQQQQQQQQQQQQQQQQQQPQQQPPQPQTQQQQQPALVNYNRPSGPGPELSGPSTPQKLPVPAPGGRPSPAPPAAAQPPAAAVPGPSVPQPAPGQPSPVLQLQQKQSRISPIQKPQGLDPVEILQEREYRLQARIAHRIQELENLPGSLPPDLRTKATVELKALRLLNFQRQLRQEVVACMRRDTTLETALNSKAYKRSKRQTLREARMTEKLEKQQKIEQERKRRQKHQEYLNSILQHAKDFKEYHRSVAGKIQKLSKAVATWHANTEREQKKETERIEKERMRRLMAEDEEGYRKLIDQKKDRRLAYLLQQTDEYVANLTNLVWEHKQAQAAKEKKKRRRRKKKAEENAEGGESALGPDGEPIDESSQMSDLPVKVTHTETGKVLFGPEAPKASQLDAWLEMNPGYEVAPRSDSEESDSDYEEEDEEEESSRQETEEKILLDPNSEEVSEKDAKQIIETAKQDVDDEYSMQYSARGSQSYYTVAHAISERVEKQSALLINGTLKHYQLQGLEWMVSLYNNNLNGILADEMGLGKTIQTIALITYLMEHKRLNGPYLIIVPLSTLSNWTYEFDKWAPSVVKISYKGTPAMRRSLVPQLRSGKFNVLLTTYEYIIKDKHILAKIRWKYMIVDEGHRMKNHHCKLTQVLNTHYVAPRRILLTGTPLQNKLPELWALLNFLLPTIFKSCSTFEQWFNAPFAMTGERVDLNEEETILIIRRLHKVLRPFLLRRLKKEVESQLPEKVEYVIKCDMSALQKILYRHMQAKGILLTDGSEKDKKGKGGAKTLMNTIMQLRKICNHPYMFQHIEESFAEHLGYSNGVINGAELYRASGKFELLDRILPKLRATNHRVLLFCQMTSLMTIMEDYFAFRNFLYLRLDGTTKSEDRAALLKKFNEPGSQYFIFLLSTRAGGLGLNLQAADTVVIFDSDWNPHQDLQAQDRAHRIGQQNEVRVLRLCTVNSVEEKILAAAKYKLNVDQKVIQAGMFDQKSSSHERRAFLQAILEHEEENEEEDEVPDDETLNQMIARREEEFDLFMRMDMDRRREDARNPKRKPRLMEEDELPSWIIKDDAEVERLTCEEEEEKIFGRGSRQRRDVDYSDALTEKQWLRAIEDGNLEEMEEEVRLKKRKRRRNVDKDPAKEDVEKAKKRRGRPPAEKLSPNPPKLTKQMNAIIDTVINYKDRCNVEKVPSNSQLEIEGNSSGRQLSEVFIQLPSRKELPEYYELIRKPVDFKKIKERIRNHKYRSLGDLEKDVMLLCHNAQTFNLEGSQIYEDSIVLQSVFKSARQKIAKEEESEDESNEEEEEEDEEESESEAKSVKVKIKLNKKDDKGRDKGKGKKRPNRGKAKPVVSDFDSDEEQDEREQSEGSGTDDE

For assay [3], the target named is T1, Carboxy-terminal domain RNA polymerase II polypeptide A small phosphatase 1 (Homo sapiens, UniProt Q9GZU7).
T1 sequence (Q9GZU7 whole entry): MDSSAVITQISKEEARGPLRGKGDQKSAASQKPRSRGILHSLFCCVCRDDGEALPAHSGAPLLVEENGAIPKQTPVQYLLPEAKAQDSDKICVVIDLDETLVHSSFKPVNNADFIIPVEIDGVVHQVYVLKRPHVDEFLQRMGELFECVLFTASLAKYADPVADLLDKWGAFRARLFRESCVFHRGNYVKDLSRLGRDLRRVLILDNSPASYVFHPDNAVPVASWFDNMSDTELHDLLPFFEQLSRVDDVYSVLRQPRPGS
Nature of the assay: CTDSP1 inhibitors, concentration-response, biochemical, absorbance readout, ultra-high-throughput screen actives (AID 540297). In kind it is functional.

In assay [4] the target is T2, DNA repair protein RAD52 homolog (Homo sapiens, UniProt P43351).
T2 sequence (P43351 whole entry): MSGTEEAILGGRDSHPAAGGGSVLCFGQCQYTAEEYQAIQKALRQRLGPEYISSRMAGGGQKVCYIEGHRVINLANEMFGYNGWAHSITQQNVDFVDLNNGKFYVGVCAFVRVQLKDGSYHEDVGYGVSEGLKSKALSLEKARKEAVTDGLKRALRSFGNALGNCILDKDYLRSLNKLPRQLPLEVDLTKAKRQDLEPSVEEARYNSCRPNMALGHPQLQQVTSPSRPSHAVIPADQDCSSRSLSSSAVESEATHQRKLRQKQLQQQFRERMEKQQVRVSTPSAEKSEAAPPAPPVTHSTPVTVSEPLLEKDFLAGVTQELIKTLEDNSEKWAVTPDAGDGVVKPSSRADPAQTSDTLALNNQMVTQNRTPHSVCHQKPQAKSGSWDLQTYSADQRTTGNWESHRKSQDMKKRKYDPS
In kind it is functional, biochemical.

Assay [5] in a line: general mammalian cell viability loss – inhibitor set, cherry-pick, set 2, cytotoxicity control for miR-122 modulator project, dose response (AID 720697). In kind it is functional, cell-based.
A further assay deals with HeLa. Put plainly: viability loss in HeLa cells – cell-based, ATP luminescence, cherry-pick samples, cytotoxicity control, dose response (AID 687004). Format: functional. Particulars: Homo sapiens.
Assay [6] is described as follows: blockers of HIV-1 envelope-mediated cell-cell fusion – cherry-pick, dose response (AID 652057). Format: functional, cell-based.
Assay [7] in a line: viability loss in CEM21 cells – cell-based, CellTiter-Glo luminescence, cherry-picked, cytotoxicity control for viral fusion inhibitor project, dose response (AID 652042).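 Also: potency for signal decrease meaning cytotoxicity.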 Format: functional. A general note: ATP-based viability assays read luminescence as a measure of living cells.
A short description of assay [8]: IGROV1 cell killing – plate reader, dry powder samples, PAX8 inhibitor project, dose response (AID 743043). In kind it is functional, cell-based. The following applies: IGROV-1.
The target of a further assay is Paired box protein Pax-8 (Homo sapiens, UniProt Q06710). Put plainly: PAX8 transcriptional activity inhibition in RMG-I – RMG-I cells, luciferase, cherry-pick, dose response (AID 687027).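 Also: luciferase reporter driven by Pax8 target thyroperoxidase promoter measured by SteadyGlo luminescence.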 In kind it is functional, cell-based.
Chain of Paired box protein Pax-8 (Q06710 whole entry): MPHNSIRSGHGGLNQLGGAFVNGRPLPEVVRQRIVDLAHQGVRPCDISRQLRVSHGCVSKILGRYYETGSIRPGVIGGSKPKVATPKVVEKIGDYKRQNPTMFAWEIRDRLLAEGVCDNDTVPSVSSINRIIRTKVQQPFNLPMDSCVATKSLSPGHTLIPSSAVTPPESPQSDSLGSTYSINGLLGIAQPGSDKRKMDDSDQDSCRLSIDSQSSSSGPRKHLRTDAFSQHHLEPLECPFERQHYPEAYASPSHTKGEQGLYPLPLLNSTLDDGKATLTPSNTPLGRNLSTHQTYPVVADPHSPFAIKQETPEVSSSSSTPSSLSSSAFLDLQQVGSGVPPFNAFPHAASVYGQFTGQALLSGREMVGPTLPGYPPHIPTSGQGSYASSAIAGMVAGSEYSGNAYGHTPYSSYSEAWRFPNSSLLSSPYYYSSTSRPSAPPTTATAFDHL
A short description of assay [9]: OVCAR8 cell viability loss – plate reader, dry powder samples, PAX8 project, dose response (AID 743197). The following applies: OVCAR-8. In kind it is functional, cell-based.
Assay [10] can be described thus: OVCAR-3 cell viability loss – plate reader, dry powder samples, PAX8 inhibitor project, dose response (AID 743044). In kind it is functional, cell-based.
Assay [11] is described as follows: general cell-killing toxicity readout – plate reader, dry powder samples, cytotoxicity control for PAX8 inhibitor project, dose response (AID 743021). Format: functional, cell-based.
Assay [12] in a line: T. cruzi growth inhibition in host cells, dose response, cell-based, plate reader, dry powder, set 2 (AID 652275). In kind it is functional.
Assay [13] in a line: general mammalian cell viability loss – activator set, cherry-pick, cytotoxicity control for miR-122 modulator project, dose response (AID 720690).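 Also: HEK293T human cells scored for general mammalian cytotoxicity.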 In kind it is functional, cell-based.

Activity calls are given as the source filed them.

Consider `O=C1NC2c3c(Cl)sc(Cl)c3C(=O)C2O1` (configuration not stated), for which the EC50 in assay [1] and in assay [2] was > 91 µM (inactive) each time. Moreover, in assay [3], the concentration for half-maximal inhibition (IC50) (as a rule, the concentration that gives 50% inhibition) was 3.75 µM (active).
With `Cc1nc2cc(Oc3nc(NCCN(C)C)nc4ccsc34)ccc2s1`, the AC50 – broadly, the midpoint of the concentration-response curve, whichever way the signal moves – in [4] is 21 µM (active).
For the compound `CCNC(=O)Nc1ccc2c(c1)C(=O)N(C)[C@H]1CC[C@H](CC(=O)Nc3ccccc3F)O[C@@H]1CO2`, the concentration at half-maximal activity (AC50) is 2.11 µM (active) in [5] and 0.264 µM (active) with HeLa.
For the compound `N#C[C@@H]1[C@H](c2ccc(-c3ccccc3F)cc2)[C@@H](CO)N1C(=O)c1ccccn1`, the AC50 was 62.6 µM (active) in [6] and 67 µM (active) in assay [7].
`Cc1cccc(S(=O)(=O)N2CCCCN3[C@H](CO)[C@H](c4ccc(C#C[C@H](C)O)cc4)[C@H]3C2)c1`: the half-maximal activity concentration (AC50) is 17.6 µM (active) in assay [8], 7.18 µM (active) on Paired box protein Pax-8, > 70 µM (inactive) in assay [9] and 30.4 µM (active) in assay [10].
With `C[C@@H]1CCCCO[C@H](CN(C)Cc2ccc(Cl)c(Cl)c2)[C@@H](C)CN([C@@H](C)CO)C(=O)c2cc(NC(=O)c3ccccc3)ccc2O1`, the AC50 was 47.5 µM (active) in assay [8]; 52.7 µM (active) in assay [11]; 8.87 µM (active) at Paired box protein Pax-8; 60 µM (active) in assay [9]; 43.1 µM (active) in assay [10].
As for `CC(C)N1CC2(CN(Cc3ccc(Cl)cc3)C2)Oc2c(NC(=O)c3ccncc3)cccc2C1=O`, in assay [12], the AC50 is 0.136 µM (active).
Consider `COCC(=O)Nc1ccc2c(c1)C(=O)N(C)[C@@H]1CC[C@H](CC(=O)N3CCc4ccccc4C3)O[C@H]1CO2`, for which the concentration at half-maximal activity (AC50) in assay [13] is 37 µM (active); in assay [5], 9.29 µM (active).
Consider `CC(C)N1C(=O)c2cccc(NC(=O)c3ccncc3)c2O[C@H](CN(C)Cc2ccc(Cl)cc2)[C@H]1C`, for which the AC50 in [12] is 0.00096 µM (active).
As to `CC(C)(C)[S+]([O-])N1Cc2cc(C(=O)NCc3ccc4c(c3)OCO4)nc(-c3cccc(-c4cccc(F)c4)c3)c2[C@H]1CCO` (some centres not stated), the AC50 in assay [12] is 0.394 µM (active).

The values are drawn from ChEMBL document CHEMBL1201862, “PubChem BioAssay data set” (2004).
